Series [1] can be described thus: Rotorod Test, TD50. The conditions noted are these: in vivo. The source says: (§1) The term convulsions is intended to mean the characteristic body movements which are associated with the group of chronic central nervous system disorders termed, epilepsies.
(§2) These procedures are described in E. A. Swinyard, et al., Epilepsia, 19, 409 (1978), which is incorporated herein by reference. The TD50 is defined as the median minimal neurotoxic dose.
(Falling from the rotarod earlier than controls is read as motor impairment.)

Series [2] in a line: Subcutaneous Pentylenetetrazole Seizure Threshold Test, scMet. The conditions noted are these: for PI scMet: Protective Index, ratio of TD50 vs ED50 scMet; for ED50: sc. The series is classed as in vivo.
Excerpt: The compounds of structural formula I are new chemical substances of value as pharmacological agents for the treatment of convulsions in warm-bloodedanimals. The term convulsions is intended to mean the characteristic body movements which are associated with the group of chronic central nervous system disorders termed, epilepsies. The anticonvulsant activity of representative compounds of formula I was established by the following standard test procedures: […]
3. Subcutaneous Pentylenetetrazole Seizure Threshold Test, scMet.
as §2

Series [3] can be described thus: Maximal Electroshock Seizure Test, MES. Particulars: for PI MES: Protective Index, ratio of TD50 vs ED50 MES. The series is classed as in vivo.
Excerpt: as §1
2. Maximal Electroshock Seizure Test, MES.
as §2

`CCC1(c2ccccc2)NC(=O)N(C)C1=O` (stereo not shown) [MEPHENYTOIN]: the TD50 (as a rule, the 50% point of the dose-response relation for the toxic effect studied) in series [1] came out at 154 mg/kg. For the same compound, in series [2], the “PI scMet” value is 5.05 and the ED50 – broadly, the dose that gives a 50% effect, or the effect in half of the subjects – was determined as 30.4 mg/kg. Besides, in series [3], the ED50 worked out at 60.5 mg/kg and the “PI MES” value is given as 2.54.
Compound `NC(=O)N1c2ccccc2C=Cc2ccccc21` [CARBAMAZEPINE] returned an ED50 in series [3] of 8.81 mg/kg.
Compound `Cc1nn(C)c(N)c1C(=O)Nc1cccc(Cl)c1` [5-Amino-N-(3-chlorophenyl)-1,3-dimethyl-1H-pyrazole-4-carboxamide] registered a TD50 in series [1] of 234 mg/kg. Besides, in series [2], the “PI scMet” value is 2.35 and the ED50 amounted to 99.6 mg/kg. For the same compound, in series [3], the ED50 was 47.3 mg/kg and the “PI MES” value is given as 4.95.
For `Cc1ccccc1NC(=O)c1c(C)nn(C)c1N` [5-Amino-1,3-dimethyl-N-(2-methylphenyl)-1H-pyrazole-4-carboxamide], in that order: 104 mg/kg, 1.94, 53.7 mg/kg, 25.7 mg/kg and 4.05.

For the origin of these results see patent publication US4346097A, “Method for treating convulsions with pyrazole-4-carboxamide derivatives” (Warner-Lambert Company, priority 1980, dated 1982).
